From patent US11628172B2, “Methods of treating chronic lymphocytic leukemia using 2-(2,6-dioxopiperidin-3-yl)-4-((2-fluoro-4-((3-morpholinoazetidin-1-yl)methyl)benzyl)amino)isoindoline-1,3-dione” (Celgene Corporation, priority 2019, dated 2023)
Where two headings read alike, the source gives them in different places.

What was measured:
[1] = system: CII CLL cell line; assay: Cell proliferation and viability assay (384-well flow cytometry, Annexin V/DRAQ7), CII; format: cell-based; details: 120 hours
Procedure: (§1) The following are examples of cell-based assays that can be used to determine the anti-proliferative activity and apoptotic effect of compounds described herein using exemplary CLL cell lines (Table 3). The in vitro growth inhibitory activity of Compound 1 described herein was evaluated using a 384-well flow cytometry assay.
(§2) The cell lines were plated under the conditions shown in Table 3 in 384-well flat bottom plates and incubated with increasing concentrations of compound ranging from 0.00015 to 10 μM or dimethyl sulfoxide (DMSO) control. The final concentration of DMSO was 0.1% (v/v). Following the addition of Compound 1 or DMSO and incubation for 120 hours, cell number and cell death were analyzed by flow cytometry (Attune®, Thermo Fisher) using Annexin V and the live-cell impermeant DNA dye, DRAQ7. […]
(§3) Flow cytometry data analysis was then performed using the Flow Jo_v10 software to determine the number of viable cells (Annexin V and DRAQ7 double negative staining cells) and percentage of apoptotic cells (Annexin V positive cells) for each condition. […] The IC50 (50% inhibitory concentration) and Emax (maximum efficacy achieved) values were then calculated by performing nonlinear regression curve fitting using log (inhibitor) vs. normalized response—variable slope analysis on GraphPad Prism 7.03. […]

[2] = system: PGA1 CLL cell line; assay: Cell proliferation and viability assay (384-well flow cytometry, Annexin V/DRAQ7), PGA1; format: cell-based; details: 120 hours
Procedure: as §1, §2, §3

[3] = system: primary CLL cells from patient-derived blood; assay: Cell proliferation and viability assay for B-cell CLL patient cells (ex vivo co-culture with CD154-expressing fibroblasts); format: cell-based, human; set-up: AUC: unit not given here; details: for Emax / IC50: Homo sapiens, CLL cell; for Emax: read-out: Emax (percentage of tumor cells remaining); for AUC: viable cell counts
Procedure: The following are examples of cell-based assays that can be used to determine the anti-proliferative activity and apoptosis effect of compounds described herein using exemplary CLL patient cells. The effect of Compound 1 on the viability and apoptosis of CLL B cells was assessed utilizing an ex vivo model.
CLL is characterized by accumulation of clonal CD5^+CD19^+ lymphocytes resistant to apoptosis. The effect of Compound 1 on the viability and apoptosis of CLL B cells was assessed utilizing an ex vivo model where primary CLL cells from patient-derived blood were stimulated with 10% fetal bovine serum (FBS), 5 ng/mL recombinant human interleukin-4 (rh IL-4), 10 ng/mL recombinant human interleukin-10 (rh IL-10) and co-cultured with fibroblast expressing surface CD154 (CD40L). The percentage of cells staining with Annexin V and/or DRAQ-7 was measured by flow cytometry assay after 3, 6 or 10 days of incubation with vehicle control or with increasing concentrations of Compound 1 ranging from 0.001 to 1 μM. Peripheral blood mononuclear cells (PBMCs) from CLL patients (Table 5) containing 70%-95% of CD5^+CD19^+ tumor cells were cultured on a monolayer of CD154-expressing fibroblasts in 24-well plates at a density of patient cells of 0.8×10^6 cells/well in RPMI 1640 medium supplemented with 10% FBS, 5 ng/mL rh IL-4 and 10 ng/mL rh IL-10 and were treated with vehicle control (0.1% DMSO) or increasing concentrations of Compound 1 ranging from 0.001 to 1 μM. After treatment, flow cytometric analysis was used to determine the number of cells that were viable or apoptotic.
After 3, 6 or 10 days of compound treatment, cells were incubated with Annexin V to capture the externalization of phosphatidylserine as a result of disturbed lipid asymmetry in the plasma membrane of cells, a well-characterized event in apoptosis, and the vital far-red fluorescent DNA dye DRAQ-7, that only stains the nuclei of dead and permeabilized cells, and analyzed by flow cytometry (Attune®, Thermo Fisher). Analysis was then performed to determine the percentage of viable live cells (Annexin V and DRAQ-7 double negative staining cells) using FlowJo_V10 and graphed with GraphPad Prism 7.03 software. The live cell count for every condition was normalized to the DMSO control (considered as 100% viable cells) to calculate the percentage of viable cells remaining after treatment. The IC50 (50% inhibitory concentration) and Emax (maximum efficacy eliminating tumor cells achieved) values were then calculated by performing nonlinear regression curve fitting using log(inhibitor) vs. normalized response—variable slope analysis on GraphPad Prism 7.03. Area under the curve (AUC) value of the viable cell counts over time was calculated by performing area under curve analysis on GraphPad Prism 7.03 (Table 6).

[4] = system: I83-E95 CLL cell line; assay: Cell proliferation and viability assay (384-well flow cytometry, Annexin V/DRAQ7), I83-E95; format: cell-based; details: 120 hours
Procedure: as §1, §2, §3

[5] = system: EHEB CLL cell line; assay: Cell proliferation and viability assay (384-well flow cytometry, Annexin V/DRAQ7), EHEB; format: cell-based; details: 120 hours
Procedure: as §1, §2, §3

[6] = Pt10, ex vivo CLL patient cells

## O=C1CC[C@H](N2C(=O)c3cccc(NCc4ccc(CN5CC(N6CCOCC6)C5)cc4F)c3C2=O)C(=O)N1 [Compound 1, (S)-2-(2,6-dioxopiperidin-3-yl)-4-((2-fluoro-4-((3-morpholinoazetidin-1-yl)methyl)benzyl)amino)isoindoline-1,3-dione]
[1]
  % Viable Cells Emax (percentage of tumor cells remaining): 78.23%
[2]
  % Viable Cells Emax (percentage of tumor cells remaining): 69.21%
[3]; Pt1, ex vivo CLL patient cells
  Emax: 4.62%
  AUC: 32.79
[3]; Pt2, ex vivo CLL patient cells, 0.001 to 1 μM, viable cells normalized to DMSO, read-out: IC50
  IC50: 1.05 nM
[3]; Pt2, ex vivo CLL patient cells
  Emax: 30.6%
  AUC: 181.6
[3]; Pt3, ex vivo CLL patient cells, 0.001 to 1 μM, viable cells normalized to DMSO, read-out: IC50
  IC50: 0.723 nM
[3]; Pt3, ex vivo CLL patient cells
  Emax: 13%
  AUC: 106.1
[3]; Pt4, ex vivo CLL patient cells
  Emax: 6.5%
  AUC: 44.01
[3]; Pt5, ex vivo CLL patient cells, 0.001 to 1 μM, viable cells normalized to DMSO, read-out: IC50
  IC50: 0.305 nM
[3]; Pt5, ex vivo CLL patient cells
  Emax: 22.8%
  AUC: 139.6
[3]; Pt6, ex vivo CLL patient cells, 0.001 to 1 μM, viable cells normalized to DMSO, read-out: IC50
  IC50: 2.75 nM
[3]; Pt6, ex vivo CLL patient cells
  Emax: 27.4%
  AUC: 154.9
[3]; Pt7, ex vivo CLL patient cells, 0.001 to 1 μM, viable cells normalized to DMSO, read-out: IC50
  IC50: 0.036 nM
[3]; Pt7, ex vivo CLL patient cells
  Emax: 5.87%
  AUC: 44.86
[3]; Pt8, ex vivo CLL patient cells, 0.001 to 1 μM, viable cells normalized to DMSO, read-out: IC50
  IC50: 0.209 nM
[3]; Pt8, ex vivo CLL patient cells
  Emax: 4.82%
  AUC: 75.03
[3]; Pt9, ex vivo CLL patient cells, 0.001 to 1 μM, viable cells normalized to DMSO, read-out: IC50
  IC50: 0.0652 nM
[3]; Pt9, ex vivo CLL patient cells
  Emax: 4.14%
  AUC: 48.14
[3]; Pt10, ex vivo CLL patient cells, 0.001 to 1 μM, viable cells normalized to DMSO, read-out: IC50
  IC50: 0.129 nM
[3]; [6]
  Emax: 10.2%
  AUC: 57.87
[3]; all CLL patient samples evaluated, read-out: concentrations that led to 50% inhibition of growth (IC50)
  IC50: 0.1 to 3 nM
[4]
  % Viable Cells Emax (percentage of tumor cells remaining): 21.6%
[5]
  % Viable Cells Emax (percentage of tumor cells remaining): 28.68%
